Experimental data published in patent publication US7732475B2, “Histone deacetylase inhibitors” (Takeda San Diego, Inc., priority 2005, dated 2010).
Read-outs that look alike come from different tables or passages of the source.

Target: HDAC2 (Homo sapiens, UniProt Q92769)
Experiment: HDAC2 fluorescence inhibition assay (tBoc-Lys(Ac)-AMC)

Sequence of HDAC2 (Q92769 with tags, fused parts or gaps): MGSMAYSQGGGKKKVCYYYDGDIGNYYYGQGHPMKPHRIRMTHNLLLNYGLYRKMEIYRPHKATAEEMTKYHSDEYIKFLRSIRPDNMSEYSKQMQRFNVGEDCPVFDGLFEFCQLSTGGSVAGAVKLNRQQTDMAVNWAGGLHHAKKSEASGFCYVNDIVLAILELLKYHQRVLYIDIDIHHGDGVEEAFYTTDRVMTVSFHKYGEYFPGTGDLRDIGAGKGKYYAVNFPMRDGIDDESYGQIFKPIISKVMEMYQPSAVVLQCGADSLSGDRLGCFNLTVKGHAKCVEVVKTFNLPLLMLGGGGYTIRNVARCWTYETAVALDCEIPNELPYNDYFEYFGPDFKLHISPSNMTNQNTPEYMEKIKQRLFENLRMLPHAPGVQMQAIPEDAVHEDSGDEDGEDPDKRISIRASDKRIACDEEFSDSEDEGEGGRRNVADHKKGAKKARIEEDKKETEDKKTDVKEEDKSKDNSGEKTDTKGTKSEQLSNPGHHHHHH

IC50 [nM]	IC50 (read-out: IC50 of selected exemplified compounds against HDAC2, 50 μM tBoc-Lys(Ac)-AMC, 1 nM HDAC2, 60 minutes at room temperature) [nM]	Structure (SMILES)
≤ 50	–	Cc1c2cc(C(F)(F)F)ccc2nn1Cc1ccc(C(=O)Nc2ccccc2N)cc1 [Example 95, N-(2-aminophenyl)-4-((3-methyl-5-(trifluoromethyl)-2H-indazol-2-yl)methyl)benzamide]
50 to 100	–	Nc1ccccc1NC(=O)c1ccc(Cn2nc(N)c3ccccc32)cc1 [Example 96, 4-((3-amino-1H-indazol-1-yl)methyl)-N-(2-aminophenyl)benzamide]
50 to 100	–	COc1cc2nn(Cc3ccc(C(=O)Nc4ccccc4N)cc3)cc2cc1O [Example 97, N-(2-aminophenyl)-4-((5-hydroxy-6-methoxy-2H-indazol-2-yl)methyl)benzamide]
≤ 50	–	COc1cc2cn(Cc3ccc(C(=O)Nc4ccccc4N)cc3)nc2cc1OC [Example 98, N-(2-aminophenyl)-4-((5,6-dimethoxy-2H-indazol-2-yl)methyl)benzamide]
≤ 50	–	COc1cc2cnn(Cc3ccc(C(=O)Nc4ccccc4N)cc3)c2cc1OC [Example 99, N-(2-aminophenyl)-4-((5,6-dimethoxy-1H-indazol-1-yl)methyl)benzamide]
50 to 100	–	Nc1ccccc1NC(=O)c1ccc(Cn2nnc3ccccc32)cc1 [Example 100, 4-((1H-benzo[d][1,2,3]triazol-1-yl)methyl)-N-(2-aminophenyl)benzamide]
50 to 100	–	Nc1ccccc1NC(=O)c1ccc(Cn2nc3ccccc3n2)cc1 [Example 101, 4-((2H-benzo[d][1,2,3]triazol-2-yl)methyl)-N-(2-aminophenyl)benzamide]
–	≥ 500	CC(=O)Nc1ccc2c(cnn2Cc2ccc(C(=O)Nc3ccccc3N)cc2)c1 [Example 102, 4-((5-acetamido-1H-indazol-1-yl)methyl)-N-(2-aminophenyl)benzamide]
≤ 50	–	Nc1ccccc1NC(=O)c1ccc(Cn2cc(C(=O)NCCN3CCNCC3)cn2)cc1 [Example 103, 1-(4-(2-aminophenylcarbamoyl)benzyl)-N-(2-(piperazin-1-yl)ethyl)-1H-pyrazole-4-carboxamide]
≥ 500	–	Nc1ncncc1NC(=O)c1ccc(Cn2cc3ccccc3n2)cc1 [Example 104, 4-((2H-indazol-2-yl)methyl)-N-(4-aminopyrimidin-5-yl)benzamide]
50 to 100	–	CC(=O)Nc1ccc2c(c1)c(N)nn2Cc1ccc(C(=O)Nc2ccccc2N)cc1 [Example 105, 4-((5-acetamido-3-amino-1H-indazol-1-yl)methyl)-N-(2-aminophenyl)benzamide]
≤ 50	–	CC(=O)Nc1ccc2nn(Cc3ccc(C(=O)Nc4ccccc4N)cc3)c(C)c2c1 [Example 106, 4-((5-acetamido-3-methyl-2H-indazol-2-yl)methyl)-N-(2-aminophenyl)benzamide]
50 to 100	–	CC(=O)Nc1ccc2c(c1)c(C)nn2Cc1ccc(C(=O)Nc2ccccc2N)cc1 [Example 107, 4-((5-acetamido-3-methyl-1H-indazol-1-yl)methyl)-N-(2-aminophenyl)benzamide]
50 to 100	–	CC(c1ccc(C(=O)Nc2ccccc2N)cc1)n1ncc2ccccc21 (stereo not drawn) [Example 108, 4-(1-(1H-indazol-1-yl)ethyl)-N-(2-aminophenyl)benzamide]
50 to 100	–	CC(c1ccc(C(=O)Nc2ccccc2N)cc1)n1cc2ccccc2n1 (stereo not drawn) [Example 109, 4-(1-(2H-indazol-2-yl)ethyl)-N-(2-aminophenyl)benzamide]
50 to 100	–	CC(=O)Nc1ccc2c(cnn2Cc2ccc(C(=O)Nc3ccccc3N)s2)c1 [Example 110, 5-((5-acetamido-1H-indazol-1-yl)methyl)-N-(2-aminophenyl)thiophene-2-carboxamide]
≤ 50	–	Nc1ccc(-c2cccs2)cc1NC(=O)c1ccc(Cn2cc3ccccc3n2)cc1 [Example 111, 4-((2H-indazol-2-yl)methyl)-N-(2-amino-5-(thiophen-2-yl)phenyl)benzamide]
100 to 500	–	Nc1ccc(-c2cccs2)cc1NC(=O)c1ccc(Cn2cc3c(F)cc(F)cc3n2)cc1 [Example 112, N-(2-amino-5-(thiophen-2-yl)phenyl)-4-((4,6-difluoro-2H-indazol-2-yl)methyl)benzamide]
